Reference: PubChem BioAssay (NCI)
Where “and” joins values, the source holds several entries; their conditions need not be identical. Identical values can stand only once.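 All cell lines were grown in 96-well plates and treated with compound for 48 hours. GI50 marks 50% less growth. At the TGI there is no net growth.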

Columns and labels:
Assay in all cases: DTP human tumour cell line panel, 48 h
SN12C renal = system: SN12C renal
A549 NSCLC = system: A549 NSCLC
HCC-2998 colon = system: HCC-2998 colon
HCT-15 colon = system: HCT-15 colon
NCI-H522 lung = system: NCI-H522 lung
OVCAR-5 ovarian = system: OVCAR-5 ovarian
DU-145 prostate = system: DU-145 prostate
OVCAR-4 ovarian = system: OVCAR-4 ovarian
RPMI-8226 leukemia = system: RPMI-8226 leukemia
EKVX NSCLC = system: EKVX NSCLC

Structure (SMILES)	GI50 (SN12C renal)	TGI (SN12C renal) [µM]	GI50 (A549 NSCLC) [µM]	TGI (A549 NSCLC) [µM]	GI50 (HCC-2998 colon) [µM]	TGI (HCC-2998 colon) [µM]	GI50 (HCT-15 colon) [µM]	TGI (HCT-15 colon) [µM]	GI50 (NCI-H522 lung) [µM]	TGI (NCI-H522 lung) [µM]	GI50 (OVCAR-5 ovarian) [µM]	TGI (OVCAR-5 ovarian) [µM]	GI50 (DU-145 prostate) [µM]	TGI (DU-145 prostate) [µM]	GI50 (OVCAR-4 ovarian) [µM]	TGI (OVCAR-4 ovarian) [µM]	GI50 (RPMI-8226 leukemia) [µM]	TGI (RPMI-8226 leukemia) [µM]	GI50 (EKVX NSCLC) [µM]	TGI (EKVX NSCLC) [µM]
COc1cc2ncn(-c3cc(OCc4ccccc4S(C)(=O)=O)c(C#N)s3)c2cc1OC	> 25 µM	> 25	> 25	> 25	> 25	> 25	> 25	> 25	> 25	> 25	> 25	> 25	> 25	> 25	> 25	> 25	> 25	> 25	> 25	> 25
O=C1OCC2=C1C(c1cccc(C(F)(F)F)c1)c1cc3c(cc1N2CCO)CCC3 (configuration not stated)	0.309 µM	7.76	0.201	8.04	0.177	6.76	0.15	6.02	0.137	1.35	0.265	8.97	0.195	5.66	1.05	11.2	0.239	12.8	0.278	9.52
COc1ccc(-c2nc3sc4c(c3c(=O)[nH]2)CCCC4)c2ccccc12	0.514 µM and 0.0702 µM	> 100	0.42			79.1		> 100		0.0179	0.301	4.59		17.5	2.23			> 100	1.8	
COc1ccc2[nH]cc(-c3nc(-c4c[nH]c5ccncc45)cs3)c2c1	1.83 µM	3.61	2.35	9.5	1.87	3.32	1.95	4.29	1.81	3.65	2.37	4.74	2.73	8.57	2.94	8.85	2.08	4.76	1.99	4.88
COc1ccc(C2=C(c3cc(OC)c(OC)c(OC)c3)C(=O)OC2)cc1OC	0.567 µM	73.1	0.25	> 29.1	0.025	0.299	0.0354	> 100	< 0.0189	> 46.7	0.379	> 48.4	0.821	> 100	2.65	> 100	< 0.0199	0.961	34.5	> 100
COc1ccc2c(c1)[C@@]1(C)CCC3c4ccc(O)cc4CCC3C1C2 (some centres not stated)	16.8 µM	32	12.6	32.2	18	32.3	12.3	28	16.4	37.6	19	33.1	17.6	39.7	13.7	28.4	14.8	39.8	17.6	33.2
CC[C@@]1(O)C(=O)OCc2c1cc1n(c2=O)Cc2cc3c(NC(=O)CN)cccc3nc2-1		17.1		> 48.5		9.05		> 100		56.3		63.8		1.98		> 100		28.6		> 100
CC(C)=CC1CC(C)C2(CCC3(C)CC4C(C(=O)CC4(C)O)/C(C=O)=C\CC32)O1 (configuration not stated)		0.184		0.215		0.328		0.105		0.097		0.33		0.267		0.147		0.0613		0.346
O=[N+]([O-])/C=C/c1ccc([N+](=O)[O-])cc1	2.37 µM	6.83	3.15	13.1	1.75	3.23	2.02	5.58	3.83	15	4.47	15.5	1.96	3.77	3.65	22.3	2.25	5.95	14.1	31.8
COc1ccc(/C=C\c2cc(OC)c(OC)c(OC)c2)cc1OCC(=O)Nc1nc2ccc(OC(F)(F)F)cc2s1	6.42 µM	> 100	6	> 100	17.1	> 100	3.23	> 100	3.16	21.7	31.2	> 100	4.11	> 100	5.34	> 100	5.83	> 100	7.89	> 100
COc1ccc(-c2ccccc2)cc1-c1c(Nc2cc(Cl)cc(Cl)c2O)c(=O)c1=O	1.48 µM	> 50	1.65	> 50	1.78	> 50	1.5	> 50	1.41	> 50	1.77	> 50	1.7	> 50	1.59	> 50	0.957	2.71	1.51	> 50
O=C(CCCn1ccnc1[N+](=O)[O-])NCCn1ccnc1[N+](=O)[O-]		> 100		> 100		> 100		> 100		> 100		> 100		> 100		> 100		> 100		> 100
O=C(NC1(C(=O)O)CC1c1ccccc1)c1ccccc1 (configuration not stated)		> 100		> 100		> 100		> 100		> 100		> 100		> 100		> 100		> 100		> 100
CCC(=O)c1ccc2c(c1)N(CCCN1CCN(CCO)CC1)c1ccccc1S2	16.3 µM	33	16.2	32.1	11.8	26.1	9.88	28.3	15.9	32.4	15.7	31.9	15.4	28.9	12.9	25.6	8.82	27.6	13.1	28.1
